Source: ChEMBL document CHEMBL5725720, “Pyrazolopyridines and pyrazolopyrimidines” (2016)

Assays:
[1] = target: Non-receptor tyrosine-protein kinase TYK2 (Homo sapiens, UniProt P29597); test: (§1) JAK Caliper Enzyme Assay at 1 mM ATP: Test article was solubilized in dimethyl sulfoxide (DMSO) to a stock concentration of 30 mM. An 11-point half log dilution series was created in DMSO with a top concentration of 600 μM. […] The compound plates were diluted 1 to 60 resulting in a top final assay compound concentration of 10 μM and a 2% DMSO concentration.Test article and assay controls were added to a 384-well plate. Reaction mixtures contained 20 mM HEPES, pH 7.4, 10 mM magnesium chloride, 0.01% bovine serum albumin (BSA), 0.0005% Tween 20, 1 mM ATP and 1 μM peptide substrate. The JAK1 and TYK2 assays contained 1 μM of the IRStide peptide (5FAM-[…]) and the JAK2 and JAK3 assays contained 1 μM of the JAKtide peptide (FITC-[…]). […] Enzyme concentrations and incubation times were optimized for each new enzyme preps and were modified slightly over time to ensure 20%-30% phosphorylation. The assays were stopped with a final concentration of 10 mM EDTA, 0.1% Coating Reagent and 100 mM HEPES, pH=7.4. The assay plates were placed on a Caliper Life Science Lab Chip 3000 (LC3000) instrument, and each well was sampled using appropriate separation conditions to measure the unphosphorylated and phosphorylated peptide.
Chain of Non-receptor tyrosine-protein kinase TYK2 (P29597 whole entry): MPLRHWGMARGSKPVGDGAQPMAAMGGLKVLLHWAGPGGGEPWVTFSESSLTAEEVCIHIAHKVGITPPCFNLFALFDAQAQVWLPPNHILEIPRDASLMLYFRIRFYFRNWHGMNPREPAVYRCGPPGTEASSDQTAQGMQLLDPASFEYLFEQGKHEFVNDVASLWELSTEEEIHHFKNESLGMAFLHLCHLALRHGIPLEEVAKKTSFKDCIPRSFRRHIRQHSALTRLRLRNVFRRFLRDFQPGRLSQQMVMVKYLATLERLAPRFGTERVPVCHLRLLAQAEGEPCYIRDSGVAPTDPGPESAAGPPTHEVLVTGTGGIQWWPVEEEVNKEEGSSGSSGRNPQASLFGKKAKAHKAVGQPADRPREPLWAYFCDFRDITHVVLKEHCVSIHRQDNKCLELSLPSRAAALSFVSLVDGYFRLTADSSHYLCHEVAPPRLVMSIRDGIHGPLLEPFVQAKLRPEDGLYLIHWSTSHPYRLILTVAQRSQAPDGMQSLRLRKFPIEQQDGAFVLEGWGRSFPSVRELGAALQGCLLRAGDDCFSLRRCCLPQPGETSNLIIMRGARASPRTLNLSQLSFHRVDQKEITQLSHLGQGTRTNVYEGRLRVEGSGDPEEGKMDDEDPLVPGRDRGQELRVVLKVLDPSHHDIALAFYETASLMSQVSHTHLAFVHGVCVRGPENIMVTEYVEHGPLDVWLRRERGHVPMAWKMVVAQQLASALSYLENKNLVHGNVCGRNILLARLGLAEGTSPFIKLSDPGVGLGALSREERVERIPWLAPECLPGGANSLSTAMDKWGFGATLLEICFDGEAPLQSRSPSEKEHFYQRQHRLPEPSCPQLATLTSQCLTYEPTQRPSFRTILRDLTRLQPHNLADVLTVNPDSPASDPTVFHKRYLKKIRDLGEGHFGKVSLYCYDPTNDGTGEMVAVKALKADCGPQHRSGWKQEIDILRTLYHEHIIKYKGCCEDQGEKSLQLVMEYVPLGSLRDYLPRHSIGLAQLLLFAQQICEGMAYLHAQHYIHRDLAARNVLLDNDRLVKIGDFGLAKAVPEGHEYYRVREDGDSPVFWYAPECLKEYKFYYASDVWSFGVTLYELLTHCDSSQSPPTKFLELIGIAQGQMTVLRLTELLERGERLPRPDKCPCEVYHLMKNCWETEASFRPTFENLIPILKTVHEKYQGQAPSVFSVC

[2] = target: Tyrosine-protein kinase JAK1 (Homo sapiens, UniProt P23458); test: as §1
Chain of Tyrosine-protein kinase JAK1 (P23458 whole entry): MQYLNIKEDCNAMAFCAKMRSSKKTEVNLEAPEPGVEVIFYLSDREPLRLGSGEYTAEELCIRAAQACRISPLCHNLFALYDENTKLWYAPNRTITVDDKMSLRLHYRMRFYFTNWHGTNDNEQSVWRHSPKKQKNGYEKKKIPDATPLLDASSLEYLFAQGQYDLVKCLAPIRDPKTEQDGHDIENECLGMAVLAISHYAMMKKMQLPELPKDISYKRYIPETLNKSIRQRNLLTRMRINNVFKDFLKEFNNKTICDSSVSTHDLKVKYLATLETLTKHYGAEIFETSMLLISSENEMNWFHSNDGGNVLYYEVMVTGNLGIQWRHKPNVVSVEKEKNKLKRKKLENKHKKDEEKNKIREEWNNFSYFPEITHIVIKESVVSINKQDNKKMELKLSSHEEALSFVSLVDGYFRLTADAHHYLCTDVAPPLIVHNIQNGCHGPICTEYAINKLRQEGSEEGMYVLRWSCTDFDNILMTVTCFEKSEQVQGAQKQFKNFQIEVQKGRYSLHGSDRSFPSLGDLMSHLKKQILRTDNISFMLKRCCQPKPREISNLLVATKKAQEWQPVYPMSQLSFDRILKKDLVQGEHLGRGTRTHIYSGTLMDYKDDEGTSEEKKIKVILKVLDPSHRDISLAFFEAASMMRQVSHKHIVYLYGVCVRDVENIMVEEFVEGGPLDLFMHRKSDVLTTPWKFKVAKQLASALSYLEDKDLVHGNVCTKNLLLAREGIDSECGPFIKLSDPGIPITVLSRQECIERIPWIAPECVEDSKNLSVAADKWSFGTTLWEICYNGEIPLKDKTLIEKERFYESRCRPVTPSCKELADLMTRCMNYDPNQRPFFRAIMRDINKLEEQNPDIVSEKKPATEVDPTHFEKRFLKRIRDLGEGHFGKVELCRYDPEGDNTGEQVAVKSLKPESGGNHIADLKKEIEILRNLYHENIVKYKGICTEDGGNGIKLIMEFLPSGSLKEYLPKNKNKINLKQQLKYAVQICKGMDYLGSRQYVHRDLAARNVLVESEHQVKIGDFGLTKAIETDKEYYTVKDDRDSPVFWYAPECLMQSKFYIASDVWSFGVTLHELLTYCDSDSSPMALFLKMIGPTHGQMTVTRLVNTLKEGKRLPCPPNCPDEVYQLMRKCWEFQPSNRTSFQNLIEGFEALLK

[3] = target: T1, Tyrosine-protein kinase JAK3 (Homo sapiens, UniProt P52333); test: as §1
T1 sequence (P52333 whole entry): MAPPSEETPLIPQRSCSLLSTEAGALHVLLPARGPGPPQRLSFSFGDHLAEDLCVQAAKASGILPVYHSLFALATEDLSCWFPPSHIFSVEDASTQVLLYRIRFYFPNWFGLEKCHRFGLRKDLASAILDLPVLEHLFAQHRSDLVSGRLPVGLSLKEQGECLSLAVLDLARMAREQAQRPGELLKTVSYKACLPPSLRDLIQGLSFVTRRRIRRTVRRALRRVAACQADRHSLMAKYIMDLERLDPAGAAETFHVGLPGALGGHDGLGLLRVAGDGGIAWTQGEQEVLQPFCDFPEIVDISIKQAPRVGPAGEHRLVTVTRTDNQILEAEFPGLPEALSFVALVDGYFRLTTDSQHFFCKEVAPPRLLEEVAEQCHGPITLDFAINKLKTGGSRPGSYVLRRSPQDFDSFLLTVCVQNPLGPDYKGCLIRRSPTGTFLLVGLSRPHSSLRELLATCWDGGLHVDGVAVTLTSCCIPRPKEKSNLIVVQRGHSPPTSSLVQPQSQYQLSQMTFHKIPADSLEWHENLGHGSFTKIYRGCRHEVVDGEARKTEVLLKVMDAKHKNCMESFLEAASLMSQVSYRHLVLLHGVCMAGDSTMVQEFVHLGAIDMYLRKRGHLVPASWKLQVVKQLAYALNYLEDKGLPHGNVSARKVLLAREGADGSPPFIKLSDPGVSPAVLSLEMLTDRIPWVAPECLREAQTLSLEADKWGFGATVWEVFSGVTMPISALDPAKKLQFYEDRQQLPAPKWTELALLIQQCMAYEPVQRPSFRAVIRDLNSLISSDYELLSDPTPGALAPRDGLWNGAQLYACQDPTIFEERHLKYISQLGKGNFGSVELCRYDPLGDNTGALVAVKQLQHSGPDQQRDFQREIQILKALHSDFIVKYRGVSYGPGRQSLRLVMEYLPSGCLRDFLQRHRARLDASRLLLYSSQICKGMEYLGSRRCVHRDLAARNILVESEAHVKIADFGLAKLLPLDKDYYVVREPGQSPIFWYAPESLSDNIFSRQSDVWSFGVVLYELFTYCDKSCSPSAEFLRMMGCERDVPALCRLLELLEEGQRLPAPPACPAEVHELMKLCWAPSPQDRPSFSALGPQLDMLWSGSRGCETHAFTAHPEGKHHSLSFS

[4] = target: Tyrosine-protein kinase JAK2 (Homo sapiens, UniProt O60674); test: JAK Caliper Enzyme Assay at 1 mM ATP: Test article was solubilized in dimethyl sulfoxide (DMSO) to a stock concentration of 30 mM. An 11-point half log dilution series was created in DMSO with a top concentration of 600 μM. […] The compound plates were diluted 1 to 60 resulting in a top final assay compound concentration of 10 μM and a 2% DMSO concentration.Test article and assay controls were added to a 384-well plate. Reaction mixtures contained 20 mM HEPES, pH 7.4, 10 mM magnesium chloride, 0.01% bovine serum albumin (BSA), 0.0005% Tween 20, 1 mM ATP and 1 μM peptide substrate. […] Enzyme concentrations and incubation times were optimized for each new enzyme preps and were modified slightly over time to ensure 20%-30% phosphorylation. The assays were stopped with a final concentration of 10 mM EDTA, 0.1% Coating Reagent and 100 mM HEPES, pH=7.4. The assay plates were placed on a Caliper Life Science Lab Chip 3000 (LC3000) instrument, and each well was sampled using appropriate separation conditions to measure the unphosphorylated and phosphorylated peptide.
Chain of Tyrosine-protein kinase JAK2 (O60674 whole entry): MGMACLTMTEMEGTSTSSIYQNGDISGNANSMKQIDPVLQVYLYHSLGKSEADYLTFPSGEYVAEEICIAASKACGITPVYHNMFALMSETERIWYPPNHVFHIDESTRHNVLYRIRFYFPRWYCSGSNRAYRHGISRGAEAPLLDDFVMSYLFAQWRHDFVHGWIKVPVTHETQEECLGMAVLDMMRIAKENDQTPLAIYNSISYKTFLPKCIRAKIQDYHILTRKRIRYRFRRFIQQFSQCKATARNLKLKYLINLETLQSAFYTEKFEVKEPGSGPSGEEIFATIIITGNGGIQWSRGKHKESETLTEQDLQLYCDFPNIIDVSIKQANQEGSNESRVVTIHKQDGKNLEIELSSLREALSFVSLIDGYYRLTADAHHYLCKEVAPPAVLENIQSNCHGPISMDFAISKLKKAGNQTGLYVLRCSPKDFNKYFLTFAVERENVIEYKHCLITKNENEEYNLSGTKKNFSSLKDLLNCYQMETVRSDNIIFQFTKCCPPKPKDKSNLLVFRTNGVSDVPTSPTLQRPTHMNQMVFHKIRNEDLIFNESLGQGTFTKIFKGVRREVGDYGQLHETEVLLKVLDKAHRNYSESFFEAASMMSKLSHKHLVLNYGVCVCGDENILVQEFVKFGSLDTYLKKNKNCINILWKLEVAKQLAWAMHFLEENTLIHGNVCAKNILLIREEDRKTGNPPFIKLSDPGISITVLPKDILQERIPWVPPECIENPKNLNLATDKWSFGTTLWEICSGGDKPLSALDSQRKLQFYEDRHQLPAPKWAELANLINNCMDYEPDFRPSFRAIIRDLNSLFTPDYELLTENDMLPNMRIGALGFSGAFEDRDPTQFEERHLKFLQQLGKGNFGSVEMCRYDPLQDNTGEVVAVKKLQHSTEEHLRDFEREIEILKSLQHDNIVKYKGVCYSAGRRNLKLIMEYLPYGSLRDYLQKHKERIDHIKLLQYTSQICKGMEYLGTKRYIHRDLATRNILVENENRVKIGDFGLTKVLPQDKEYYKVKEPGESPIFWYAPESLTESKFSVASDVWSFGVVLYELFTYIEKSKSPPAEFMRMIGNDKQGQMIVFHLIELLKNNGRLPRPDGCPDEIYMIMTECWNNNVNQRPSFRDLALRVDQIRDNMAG

`CSCCNc1nc(-c2cc(F)c(O)cc2CC(F)(F)F)cc2[nH]nc(-c3nc4c([nH]3)CCN(Cc3ccccc3)C4)c12` was tested, and the IC50 [1] was 172 nM, the IC50 [2] was 50 nM and the IC50 [3] was 589 nM. For the same molecule, the IC50 [4] was 196 nM.
In the case of `CCc1cc(O)ccc1-c1cc2[nH]ncc2c(N2CCc3cccc(OC)c3C2)n1`, the IC50 [1] is reported as 478 nM, the IC50 [3] is reported as 78.1 nM and the IC50 [4] is reported as 25.1 nM.
Molecule `CC(=O)N1CCc2[nH]c(-c3n[nH]c4nc(-c5cc(F)c(O)cc5CC(F)(F)F)nc(NCc5cc(O)ccc5N(C)S(C)(=O)=O)c34)nc2C1` has an IC50 [2] of 3.2 nM.
`CCc1cc(O)ccc1-c1cc2[nH]ncc2c(N2CCc3ccc(OC)c(OC)c3C2)n1` showed an IC50 [1] of 1540 nM, an IC50 [2] of 13.8 nM and an IC50 [3] of 194 nM. The IC50 [4] was 52.4 nM.
Molecule `CCCCN(c1ccccc1CN(C)c1nc(-c2cc(F)c(O)cc2CC)cc2[nH]ncc12)S(C)(=O)=O` has an IC50 [2] of 19.5 nM, an IC50 [3] of 61.6 nM and an IC50 [4] of 43.2 nM.
Molecule `CCc1cc(O)ccc1-c1cc2[nH]ncc2c(N2CCc3cc(-n4cnc(C)c4)ccc3C2)n1` has an IC50 [1] of 723 nM, an IC50 [2] of 10.7 nM and an IC50 [3] of 42.4 nM. It also gave an IC50 [4] of 26.3 nM.
With `CCc1cc(O)ccc1-c1cc2[nH]ncc2c(N2CCc3cc(F)ccc3C2)n1` the IC50 [1] was 302 nM, the IC50 [2] was 9.7 nM and the IC50 [3] was 40.8 nM. It also gave an IC50 [4] of 16.9 nM.
`CN(c1ccc(O)cc1CNc1nc(-c2cc(F)c(O)cc2CC(F)(F)F)nc2[nH]nc(C(N)=O)c12)S(=O)(=O)c1ccccc1` gave an IC50 [4] of 123 nM.
`CCc1cc(O)ccc1-c1cc2[nH]ncc2c(N2CCc3cc(OC)c(OCc4ccccc4)cc3C2)n1` gave an IC50 [1] of 2730 nM, an IC50 [2] of 67.4 nM and an IC50 [3] of 340 nM.
In the case of `CCc1cc(O)ccc1-c1cc2[nH]ncc2c(N2CCc3cc(OCCOC)ccc3C2)n1`, the IC50 [1] is reported as 289 nM, the IC50 [2] is reported as 10.1 nM and the IC50 [3] is reported as 56.2 nM. The IC50 [4] was 25.9 nM.
`CN(c1ccc(F)cc1CNc1nc(-c2cc(F)c(O)cc2CC(F)(F)F)cc2[nH]nc(C(N)=O)c12)S(C)(=O)=O` was tested, and the IC50 [1] was 127 nM, the IC50 [2] was 6.6 nM and the IC50 [3] was 140 nM. It also gave an IC50 [4] of 41.1 nM.
Work on `CCc1cc(O)c(F)cc1-c1cc2[nH]ncc2c(NCc2ccccc2N(C)S(=O)(=O)CC)n1` yielded an IC50 [1] of 8.4 nM, an IC50 [2] of 0.7 nM and an IC50 [3] of 17.3 nM.
For `CCc1cc(O)ccc1-c1cc2[nH]ncc2c(N2CCc3c(Cl)cccc3C2)n1`, the IC50 [1] was 561 nM, the IC50 [2] was 39.4 nM and the IC50 [3] was 111 nM. The IC50 [4] was 46.5 nM.
